Assay [1] has as its target T1, intracellular PLA2 (cytosolic PLA2, cPLA2) (Homo sapiens, UniProt P47712).
T1 sequence (P47712 1-749): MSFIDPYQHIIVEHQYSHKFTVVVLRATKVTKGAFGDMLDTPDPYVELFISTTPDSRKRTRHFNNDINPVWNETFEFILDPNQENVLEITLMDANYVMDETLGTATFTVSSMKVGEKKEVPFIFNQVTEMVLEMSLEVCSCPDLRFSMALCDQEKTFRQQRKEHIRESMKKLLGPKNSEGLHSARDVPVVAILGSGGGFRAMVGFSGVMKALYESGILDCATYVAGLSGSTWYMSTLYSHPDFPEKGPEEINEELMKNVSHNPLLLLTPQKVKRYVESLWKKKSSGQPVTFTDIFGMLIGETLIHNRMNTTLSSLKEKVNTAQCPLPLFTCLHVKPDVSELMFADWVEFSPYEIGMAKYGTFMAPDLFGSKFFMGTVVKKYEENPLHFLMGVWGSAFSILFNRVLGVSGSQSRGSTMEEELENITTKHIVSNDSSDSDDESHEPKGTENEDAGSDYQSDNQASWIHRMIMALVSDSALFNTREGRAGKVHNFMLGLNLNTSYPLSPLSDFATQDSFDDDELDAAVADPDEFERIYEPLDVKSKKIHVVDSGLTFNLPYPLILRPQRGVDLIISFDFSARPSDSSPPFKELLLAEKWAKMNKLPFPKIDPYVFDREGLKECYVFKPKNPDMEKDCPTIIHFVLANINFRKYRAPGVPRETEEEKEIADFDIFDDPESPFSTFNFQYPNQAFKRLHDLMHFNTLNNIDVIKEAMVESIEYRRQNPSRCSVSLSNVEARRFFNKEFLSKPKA
The experiment in a line: Intracellular PLA2 (cPLA2) inhibitory activity (14C-arachidonyl phosphatidylcholine substrate). The format is biochemical. As to conditions: 2 μM radiolabelled phosphatidylcholine, 1 μM dioleoylglycerol, 1 mM CaCl2, pH 7.4; read-out: c-PLA2 Inhibition IC50. On the procedure: cPLA2 activity was assayed according to the method described in R. M. Kramer, E. F. Roberts, J. Manetta and J. E. Putnam, J. Biol. Chem., 268 (8), 5268-5272 (1991). Briefly, intracellular PLA2 activity was assayed using supersonic treated […] which contain 1-palmitoyl-2-[^14 C]arachidonyl-sn-glycero-3-phosphocholine and sn-1, 2-dioleoylglycerol at a molar ratio of 2:1. This test mixture contained 1 mM CaCl2, 2 mM dithiothreitol, 150 mM NaCl, 50 mM Hepes, pH 7.4 and 0.1 mg/ml BSA. A substrate is a 2 μM radioisotope labelled phosphatidylcholine ribosome containing 1 μM dioleoylglycerol. IC50 value is calculating in the same manner as in calculating it for secretory PLA2 inhibitory activity.

The next assay concerns the target T2, Human secretory PLA2 (Homo sapiens, UniProt P14555).
T2 sequence (P14555 21-144): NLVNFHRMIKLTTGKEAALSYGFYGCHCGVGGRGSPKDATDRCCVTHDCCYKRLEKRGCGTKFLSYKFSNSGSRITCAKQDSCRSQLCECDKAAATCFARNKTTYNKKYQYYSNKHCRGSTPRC
Kind of assay: Secretory PLA2 inhibitory activity (diheptanoyl thio PC substrate, absorbance at 405 nm). The format is biochemical. The note with it: diheptanoyl thio PC 1 mM, Triton X100 0.3 mM, pH 7.3, CaCl2 10 mM, 30 minutes, read-out: s-PLA2 Inhibition IC50. On the procedure: Secretory PLA2 activity was assayed according to the method described in Penynolds L. J., Hughes L. L., Dennis E. A. et al. Anal. Biochem. 201,190-197 (1992).
Diheptanoyl thiophosphatidylcholine which was prepared according to the procedure described in the literature was used as a substrate. Human secretory PLA2 was used as an enzyme. The diheptanoyl thio PC (1 mM) was reacted with the human secretory PLA2 in the presence of Triton X100 (0.3 mM) and 5,5'-dithiobis-(2-nitrobenzoic acid) (125 μM) in Tris buffer (25 mM, pH 7.3), CaCl2 (10 mM), KCI (100 mM), bovine serum albumin (1.0 mg/ml), and then the change in absorbance at 405 nm at the time of 30 minutes after the reaction was assayed.
Inhibitory activity (%) was estimated by the formula: [(the change in absorbance with the inhibitor and PLA2 ·the change in absorbance with the inhibitor and without PLA2)/(the change in absorbance without the inhibitor and with PLA2 ·the change in absorbance without the inhibitor and PLA2)]×100.
IC50 value (μM) was calculated from graph showing inhibitory values on the vertical axis and log of concentrations of the inhibitor on the horizontal axis.

As a reminder, the IC50 is the point on the concentration scale where inhibition reaches its midpoint. Consider `COc1c(C)c(OC(=O)c2c(C)c(C)c(OCCC3=CCC4CC3C4(C)C)c(C)c2OC)c(C)c(C)c1C(=O)O` (single isomer, unassigned) [Example 49, 4-{4-[2-(6,6-Dimetheylbicyclo[3.1.1]hept-2-en-2-yl)ethoxy]-2-methoxy-3,5,6-trimethylbenzoyloxy}-2-methoxy-3,5,6-trimethylbenzoic Acid], for which the IC50 was 4.1 µM in assay [1] and 44 µM at Human secretory PLA2.
Take `COc1c(C)c(OC(=O)c2c(C)c(C)c(OCCCCCCOc3ccc(C(F)(F)F)cc3)c(C)c2OC)c(C)c(C)c1C(=O)O` [Example 3, 4-[4-[6-(4-Trifluoromethylphenoxy)hexyloxy]-2-methoxy-3,5,6-trimethylphenylcarboxy]-2-methoxy-3,5,6-trimethylbenzoic acid]: the IC50 in assay [1] worked out at 3 µM; at Human secretory PLA2 it was 32 µM.
For `COc1c(C)c(OC(=O)c2c(C)c(C)c(OCCCCCCOc3ccc(F)cc3)c(C)c2OC)c(C)c(C)c1C(=O)O` [Example 4, 4-[4-[6-(4-Fluorophenoxy)hexyloxy]-2-methoxy-3,5,6-trimethylphenylcarboxy]-2-methoxy-3,5,6-trimethylbenzoic acid], the IC50 in assay [1] was 7.4 µM; on Human secretory PLA2, 27 µM.
In the case of `COc1c(C)c(OC(=O)c2c(C)c(C)c(OCCCCCCSc3ccc(F)cc3)c(C)c2OC)c(C)c(C)c1C(=O)O` [Example 5, 4-[4-[6-(4-Fluorophenylthio)hexyloxy]-2-methoxy-3,5,6-trimethylphenylcarboxy]-2-methoxy-3,5,6-trimethylbenzoic acid], the values for the IC50 (in assay [1]; on Human secretory PLA2) were 4 µM and 47 µM, respectively.
Take `COc1c(C)c(OC(=O)c2c(C)c(C)c(OCCCCCCS(=O)(=O)c3ccc(F)cc3)c(C)c2OC)c(C)c(C)c1C(=O)O` [Example 6, 4-[4-[6-(4-Fluorophenylsulfonyl)hexyloxy]-2-methoxy-3,5,6-trimethylphenylcarboxy]-2-methoxy-3,5,6-trimethylbenzoic acid]: the results for the IC50 (in assay [1]; at Human secretory PLA2) were 12 µM and 9 µM, respectively.
The like results for `COc1c(C(C)(C)C)cc(SCCCOc2c(C)c(C)c(C(=O)Oc3c(C)c(C)c(C(=O)O)c(OC)c3C)c(OC)c2C)cc1C(C)(C)C` [Example 7, 4-[4-[3-(3,5-Di-tert-butyl-4-methoxyphenylthio)propyloxy]-2-methoxy-3,5,6-trimethylphenylcarboxy]-2-methoxy-3,5,6-trimethylbenzoic acid] were, in that order, 0.54 µM and above 50 µM.
For `COc1c(C)c(OC(=O)c2c(C)c(C)c(OCc3ccc(F)cc3)c(C)c2OC)c(C)c(C)c1C(=O)O` [Example 8, 4-[4-(4-Fluorobenzyloxy)-2-methoxy-3,5,6-trimethylphenylcarboxy]-2-methoxy-3,5,6-trimethylbenzoic acid] the same measures were 31 µM and 22 µM.
In the case of `COc1c(C)c(OC(=O)c2c(C)c(C)c(OCc3ccccc3)c(C)c2OC)c(C)c(C)c1C(=O)O` [Example 9, 4-[4-Benzyloxy-2-methoxy-3,5,6-trimethylphenylcarboxy)2-methoxy-3,5,6-trimethylbenzoic acid], the values for the IC50 (in assay [1]; on Human secretory PLA2) were 33 µM and 45 µM, respectively.
On to `COc1c(C)c(OC(=O)c2c(C)c(C)c(OCCCSc3ccc(F)cc3)c(C)c2OC)c(C)c(C)c1C(=O)O` [Example 10, 4-[4-[3-(4-Fluorophenylthio)propyloxy]-2-methoxy-3,5,6-trimethylphenylcarboxy]-2-methoxy-3,5,6-trimethylbenzoic acid], for which the half-inhibitory concentration (IC50) (in assay [1]; on Human secretory PLA2) was 13 µM in each case.
With `COc1c(C)c(OC(=O)c2c(C)c(C)c(OCCCCCCOc3ccc(Cl)cc3)c(C)c2OC)c(C)c(C)c1C(=O)O` [Example 11, 4-[4-[6-(4-Chlorophenoxy)hexyloxy]-2-methoxy-3,5,6-trimethylphenylcarboxy]-2-methoxy-3,5,6-trimethylbenzoic acid], the IC50 in assay [1] amounted to 4.8 µM; on Human secretory PLA2, 14 µM.
